Data reported in patent US20030069220A1, “METHOD FOR MASS MEDICATION IN BIOLOGICAL ATTACKS” (priority 2001, published 2003).

Key:
[1] = Dissolution of antibiotic powders (cephalosporin plus citric acid) in water, Example 1; format: physicochemical
Protocol: The following antibiotic powders were formed without sweeteners and flavorings by addition to clear plastic bags and by working of the bags. The mixtures were added to water in the amounts noted and the conditions of dissolution are noted, as well as the resultant pH or the formed solution. Although Example 1 describes the use of citric acid, various other constituents may be utilized as a […] (e.g., various amino acids).

[2] = in vivo; cited from earlier work
[3] = ampicillin dissolved with 95 mole-% sodium carbonate; or aqueous solution of pre-formed salt; cited from earlier work

SMILES	pH of the formed solution [1]	time to form a solution [1]	absorbed by the body when ingested [2]	pH of aqueous solution [3]
CC1=C(C(=O)O)N2C(=O)[C@@H](NC(=O)[C@H](N)c3ccccc3)[C@H]2SC1 [Cephalexin, αaminobenzyl-3-desacetoxycephalosporin]	pH of 3.3.	solution in 5 minutes	90%	–
CC1(C)S[C@@H]2[C@H](NC(=O)[C@H](N)c3ccccc3)C(=O)N2[C@H]1C(=O)[O-].[Na+] [sodium ampicillin]	–	–	–	~9.5
CC1(C)S[C@@H]2[C@H](NC(=O)[C@H](N)c3ccccc3)C(=O)N2[C@H]1C(=O)O [ampicillin]	–	–	–	8.3
